According to patent publication US20160356723A1, “Light-Up Probes Based On Fluorogens With Aggregation Induced Emission Characteristics For Cellular Imaging And Drug Screening” (NATIONAL UNIVERSITY OF SINGAPORE, priority 2014, published 2016):

Columns and labels:
[1] = In vitro cytotoxicity studies; assay type: cell-based
[2] = target: T1, recombinant human caspase-3 (Homo sapiens, UniProt P42574); experiment: Enzymatic assay: fluorescence light-up on DEVD cleavage by caspase-3; assay type: biochemical
T1 construct: purchased R&D Systems
T1 sequence (P42574 29-175 limits assumed): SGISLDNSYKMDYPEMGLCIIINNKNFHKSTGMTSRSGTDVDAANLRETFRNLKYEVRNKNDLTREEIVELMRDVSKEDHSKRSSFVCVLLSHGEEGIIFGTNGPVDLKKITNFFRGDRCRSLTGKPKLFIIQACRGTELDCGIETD
T1 sequence (P42574 176-277 limits assumed): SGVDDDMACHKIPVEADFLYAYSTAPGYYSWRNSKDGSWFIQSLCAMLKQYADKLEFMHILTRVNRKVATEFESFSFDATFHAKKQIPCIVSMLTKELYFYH
Method: DMSO stock solutions of TPS-DEVD-Pt-cRGD were diluted with a mixture of DMSO and PIPES (v/v=1/199) to 10 μM. Next, each probe was incubated with ascorbic acid or caspase-3 at room temperature and the change of fluorescence intensity was measured. The PL spectra were collected from 420 to 650 nm under an excitation wavelength at 365 nm.
To study the enzymatic response of TPS-DEVD-COOH, we performed in vitro enzymatic assays with recombinant human caspase-3. Mixtures of the ascorbic acid pretreated prodrug (10 μM) and caspases-3 (200 pM) were prepared and incubated in PIPES buffer. After 1 h incubation, the PL spectra were measured in the range from 425 to 650 nm.
The fluorescence change of the TPS-DEVD-Pt-cRGD solution (10 μM) upon addition of ascorbic acid and caspase-3 enzyme was also monitored over time in a mixture of DMSO/PIPEs (v/v=1/199) buffer. […] We further studied the effect of caspase-3 concentration on the solution emission.

[3] = test system: lysozyme, pepsin, bovine serum albumin (BSA) and trypsin; experiment: Selectivity of fluorescence response against other proteins; assay type: biochemical; settings: 10 μM ascorbic acid pretreated probe, identical conditions as caspase-3
Method: (§1) To study the selectivity of the prodrug, we incubated ascorbic acid pretreated TPS-DEVD-Pt-cRGD (10 μM) with several proteins, including lysozyme, pepsin, bovine serum albumin (BSA) and trypsin under identical conditions. […] As there are many different kinds of proteins or enzymes inside the cells, we further obtained the cellular lysate of normal and apoptotic U87-MG cells, which were pretreated with commonly used cell apoptosis inducer staurosporine (STS, 2 μM) to activate the caspase-3 enzyme in the cells. The cell lysates were directly incubated with TPS-DEVD-Pt-cRGD (5 μM) and the fluorescence intensity at 485 nm was monitored over time.

[4] = test system: apoptotic U87-MG cell lysate; experiment: Fluorescence in apoptotic cell lysate (STS pretreated); assay type: biochemical, human; settings: 5 μM probe, lysate of cells pretreated with STS 2 μM
Method: as §1

[5] = test system: normal U87-MG cell lysate; experiment: Fluorescence in normal cell lysate; assay type: biochemical, human; settings: 5 μM probe, lysate of normal cells
Method: as §1

[6] = test system: U87-MG cells; experiment: Confocal imaging of drug-induced apoptosis, U87-MG; assay type: cell-based, human
Method: (§2) U87-MG, MCF-7 and 293T cells were cultured in the chambers (LAB-TEK, Chambered Coverglass System) at 37° C. After 80% confluence, the culture medium was removed and washed twice with PBS buffer. The probe in DMSO stock solution was then added to the chamber to reach a final concentration of 5 μM. In some experiments, the cells were pre-incubated with media containing cRGD (50 μM) or inhibitor (5 μM) prior to prodrug incubation. After incubation the prodrug at 37° C. for 2 h, the medium was replaced with fresh medium, after that the cells were washed twice with ice-cold PBS and the cell nucleus was living stained with DRAQ5 (Biostatus) following the standard protocol of the manufacturer. […] The images were analyzed by Image J 1.43 x program (developed by NIH, http://rsbweb.nih.gov/ij/).
(§3) To explore the capability of using TPS-DEVD-Pt-cRGD as a targeted drug delivery system and a drug induced apoptosis imaging probe in cancer cells. […] After 2 h of incubation, the cells were treated with cisplatin or staurosporine which both can activate the cell apoptosis and monitored with confocal microscopy. […] As the incubation time elapses, the fluorescence of U87-MG increases gradually with the cellular apoptotic progress, which reaches a maximum at 6 h. […]

[7] = test system: MCF-7 cells; experiment: Confocal imaging of drug-induced apoptosis, MCF-7; assay type: cell-based; settings: 5 μM probe, 6 h incubation, low integrin expression
Method: as §2, §3

[8] = test system: 293T cells; experiment: Confocal imaging of drug-induced apoptosis, 293T; assay type: cell-based; settings: 5 μM probe, 6 h incubation, low integrin expression
Method: as §2, §3

[9] = Effect of ionic strength (NaCl) on emission; assay type: physicochemical; settings: NaCl 0 to 960 mM
Text: We next studied the optical properties of our prodrug. The UV-vis absorption spectra of TPS-CH2N3 in THF and TPS-DEVD-Pt-cRGD in DMSO/PIPES (v/v=1/199) buffer were obtained. Both have similar absorption profiles with an obvious absorbance in the 320-440 nm range with a little blue shift after the modification of the AIE fluorogen. It is known that AIE fluorogen is non-fluorescent in good solvents but emits intensely in solid or as aggregates in poor solvents. […] As biosensing is often conducted in buffers, it is important to study the effect of ionic strength on the emission behavior of the prodrug. The experiments were performed with addition of sodium chloride into an aqueous solution of TPS-DEVD-Pt-cRGD (10 μM). […] TPS-DEVD-Pt-cRGD and its reduction product maintain an “off” state in the complex environment and thus have great potential to serve as a specific light-up apoptosis sensor for drug effect study with minimum background interference.
The photoluminescence (PL) spectra of TPE-CH2NH2 and TPE-SS-D5-cRGD in DMSO and phosphate buffered saline (PBS, pH=7.4) mixtures (v/v=1/199) are shown in FIG. 13A. […] [12] The TPE-SS-D5-cRGD probe is almost non-fluorescent in the same medium (Φ=0.001), due to the easy intramolecular rotations of the TPE phenyl rings in aqueous media. […]

[10] = Solubility in water; assay type: physicochemical; settings: DMSO/PIPEs v/v=1/199
[11] = test system: U87-MG cells; experiment: Confocal imaging of intracellular thiols, U87-MG; assay type: cell-based, human; settings: BSO increased from 25 to 100 μM
Method: To explore the capability of using TPE-SS-D5-cRGD as a specific bioprobe for monitoring intracellular thiol levels in cancer cells, the probe is incubated with U87-MG human glioblastoma and MCF-7 breast cancer cell lines. U87-MG cells with overexpressed integrin αvβ3 on cellular membrane was chosen as integrin-positive cancer cell, while breast cancer cell MCF-7 with a low level of integrin αvβ3 expression was used as the negative control. […] It should be noted that the probe could also be used for live cell imaging. To provide further evidence for thiol-induced disulfide bond cleavage as the trigger of fluorescence turn-on, the U87-MG cells were also pretreated with buthionine sulfoximine (BSO) before incubation with TPE-SS-D5-cRGD. BSO is an inhibitor of g-glutamylcysteine synthetase which can inhibit the cells from synthesizing GSH. The fluorescence of TPE-SS-D5-cRGD treated U87-MG cells decreases as the concentration of BSO increases from 25 to 100 μM.

Q: For `N=C(N)NCCC[C@@H]1NC(=O)[C@H](CCCCNC(=O)[C@H](CC(=O)O)NC(=O)[C@H](CC(=O)O)NC(=O)[C@H](CC(=O)O)NC(=O)[C@H](CC(=O)O)NC(=O)[C@H](CC(=O)O)NC(=O)CCSSCCC(=O)NCc2ccc(C(=C(c3ccccc3)c3ccccc3)c3ccccc3)cc2)NC(=O)[C@@H](Cc2ccccc2)NC(=O)[C@H](CC(=O)O)NC(=O)CNC1=O` [TPE-SS-D5-cRGD], which in vitro cytotoxicity [1] is on record?
A: biocompatible

Q: What does the source list for `CC(C)[C@H](NC(=O)[C@H](CCC(=O)O)NC(=O)[C@H](CC(=O)O)NC(=O)CCC(=O)[O][Pt-2]([NH3+])([NH3+])([Cl])([Cl])[O]C(=O)CCC(=O)NCCCC[C@@H]1NC(=O)[C@@H](Cc2ccccc2)NC(=O)[C@H](CC(=O)O)NC(=O)CNC(=O)[C@H](CCCNC(=N)N)NC1=O)C(=O)N[C@@H](CC(=O)O)C(=O)N[C@@H](Cc1cn(Cc2ccc(C3=C(c4ccccc4)C(c4ccccc4)=C(c4ccccc4)[Si]3(C)C)cc2)nn1)C(N)=O` [TPS-DEVD-Pt-cRGD]?
A: fluorescence increase over intrinsic emission with caspase-3 ([2]; 10 μM probe pretreated with ascorbic acid, DMSO/PIPES v/v=1/199, PL at 485 nm, 60 min): 28 fold; time to fluorescence plateau after caspase-3 addition ([2]; 10 μM probe, ascorbic acid and caspase-3, DMSO/PIPES v/v=1/199): 60 min; detection limit for caspase-3 ([2]; three times sigma method, 10 μM probe, 1 h): 1 pM; fluorescence intensity with other proteins [3]: remain low; fluorescence intensity at 485 nm over time [4]: increases quickly; fluorescence intensity at 485 nm (stability to cellular proteins) [5]: minimum change; incubation time at which cell fluorescence reaches maximum ([6]; 5 μM probe, real-time imaging): 6 h; cell fluorescence after pretreatment with free cRGD or/and caspase-3 inhibitor ([6]; cRGD 50 μM or inhibitor 5 μM before probe): weak fluorescence; cell fluorescence [7]: weak fluorescence signal; cell fluorescence [8]: weak fluorescence signal; change of fluorescence with NaCl [9]: Almost no change; solubility in water [10]: good solubility in water

Q: For `CCCCS(=N)(=O)CCC(N)C(=O)O` (centres unmarked) [BSO, buthionine sulfoximine], which “fluorescence of TPE-SS-D5-cRGD treated cells after BSO pretreatment” value [11] is on record?
A: decreases
